Experimental data reported in patent US11311523B2, “Pyridinone compound and use thereof” (KYUSHU UNIVERSITY, NATIONAL UNIVERSITY CORPORATION, priority 2015, dated 2022).
Entries after “also recorded” stand apart in the source; their conditions may differ.

What was measured:
[1] = system: human fibrosarcoma cell line (HT-1080); experiment: cellular invasion inhibition assay (Matrigel chamber); type: cell-based; conditions: FIG. 12(C)
Protocol: (§1) Pharmacological Test 2 (Cellular Invasion Inhibition Assay)
(§2) Three hundred microliters of a suspension of a mouse lung carcinoma cell line (3LL), a human fibrosarcoma cell line (HT-1080), or a human colon cancer cell line (DLD-1) in DMEM (serum free) was placed in the upper chamber with Matrigel (BD Biosciences) equilibrated with DMEM (serum free) for 120 minutes, while 500 μL of DMEM (with 10% FCS) was placed in the lower chamber. Each pyridinone compound or CPYPP dissolved at a predetermined concentration in DMSO was added to the culture media in both the upper and lower chambers. As a control, DMSO alone was added to the media. In all of the experiments, the final DMSO concentration was adjusted to 0.2%.
(§3) After the resulting products were cultured at 37° C. under 5% CO2 for 22 hours, the chambers were removed, and the culture media were removed. […] After staining, the inserts were cut out with a blade to prepare slides, and the cells were counted under an optical microscope.
(§4) The results were evaluated based on percent cell invasion (%: Invasion) and percent inhibition (%: inhibition). The percent cell invasion was obtained by converting the number of invading cells under each condition to percentage, taking the number of invading cells in the control, to which DMSO was added alone, as 100%; and the percent inhibition was obtained by deducting the percent cell invasion from 100.

[2] = system: mouse lung carcinoma cell line (3LL); experiment: as above; type: cell-based; conditions: 3LL cells; for inhibition of cancer cell (3LL) invasion: 22 hours, compared to DMSO; for IC50: Mus musculus, FIG. 12(B), read-out: IC50 value calculated from cancer cell invasion inhibition
Protocol: as §1, §2, §3, §4

3LL cells = experiment: inhibition of macropinocytosis (TMR-dextran uptake); type: cell-based, mouse
Protocol: Pharmacological Test 5 (Experiment of Inhibition of Macropinocytosis of Cancer Cells)
Macropinocytosis is a phenomenon in which cells take up various substances together with extracellular fluid while extending cellular membranes. Remodeling of actin cytoskeleton through Rac activity is known to be important.
One hundred and fifty microliters of 4×10^4 3LL cells or HT-1080 cells were seeded on the glass portion of fibronectin-coated glass-bottom culture dishes. After 16-hour culture at 37° C., the medium was changed to DMEM (serum free) and cultured for 24 hours to allow the cells to be serum-starved. Subsequently, the medium was changed to 2 mL of serum-free medium containing DMSO alone or DMSO in which each pyridinone compound was dissolved, followed by pretreatment for 1 hour. The final concentration of DMSO was adjusted to 0.2%.
The cells were added to 180 μL of medium with TMR-dextran (final concentration: 500 μg/mL)-containing DMEM (with 10% FBS) containing DMSO alone or DMSO in which a predetermined concentration of each pyridinone compound was dissolved, as in the case above, followed by incubation at 37° C. for 1 hour. Thereafter, the cells were fixed by 60-minute incubation at room temperature in a 4% paraformaldehyde solution. […] The macropinocytosis activity was measured based on the number of TMR-dextran spots per cell. […]

mouse spleen T cells = experiment: T lymphocyte migration towards CCL21 (Transwell); type: cell-based; conditions: FIG. 16(A)
From the text: Pharmacological Test. 6 (Evaluation on T Lymphocyte Migration)
Lymphocyte migration plays key roles in immune responses. T cell stimulation by chemokines, such as CCL21, induces actin cytoskeletal remodeling through Rac activation. This drives the cells to migrate towards the source of chemokines.
Therefore, the use of various pyridinone compounds in this assay system enables cell-level verification of DOCK1 selectivity.
Mouse spleen cells at a cell concentration of 1×10^7 cells/mL were precultured at 37° C. for 1 hour in 0.5% BSA-containing RPMI-1640 (Transwell medium) containing DMSO alone or DMSO in which each pyridinone compound was dissolved at a predetermined concentration.
Subsequently, 500 μL of Transwell medium containing 300 ng/mL of CCL21 and DMSO in which each pyridinone compound was dissolved at a predetermined concentration was added to a 24-well plate. […]
After 2-hour incubation at 37° C., the cells that migrated to the lower chamber were collected and stained with PE-labeled anti-Thy1.2 antibody (53-2-1, BD Pharmingen) and APC-labeled anti-B220 antibody (RA-6B-2, eBioscience). The percentage (%) of the migrated cells was calculated by dividing the number of Thy1.2^+ cells (T cells) in the lower chamber by the number of Thy1.2^+ cells (T cells) placed into the Transwell inserts. […]

[3] = system: human colon cancer cell line (DLD-1); experiment: cellular invasion inhibition assay (Matrigel chamber); type: cell-based; conditions: FIG. 12(D)
Protocol: as §1, §2, §3, §4

[4] = system: mouse melanoma B16F10 cells; experiment: inhibition of lung metastasis of mouse melanoma cells; type: in vivo
Protocol: (§5) Pharmacological Test 8 (Experiment for Inhibition of Lung Metastasis of Mouse Melanoma Cells)
(§6) Mouse melanoma B16F10 cells suspended in 200 μL of PBS(−) were injected (2.5 or 5×10^5 cells per mouse) into the tail vein of C57BL/6 mice (6 weeks old, female). […] For a control group, an equivalent amount of a solvent (a liquid mixture of PBS/CremophoreEL/ethanol (6:1:1)) alone was administered. The administration was performed 4 times in total: immediately before the cell transplantation, and day 1, day 3, and day 5 after the transplantation. Fourteen days after the first administration, the lung was excised from each mouse, and the number of tumor metastatic foci at the lung surface was counted.

[5] = mouse body weight in the lung metastasis experiment; type: in vivo; conditions: 0.2, 0.6 or 2 mg/mouse iv, FIG. 17(D)
Protocol: as §5, §6

## O=C(Cn1cc(S(=O)(=O)N2CCCC2)ccc1=O)c1ccc(-c2ccc3ccccc3c2)cc1 [TS-28, 1-(2-(4-(naphthalen-2-yl)phenyl)-2-oxoethyl)-5-(pyrrolidin-1-ylsulfonyl)pyridin-2(1H)-one]
[1]
  inhibition of HT-1080 cell invasion: inhibit HT-1080 cell invasion
[2]
  inhibition of cancer cell (3LL) invasion: significantly excellent inhibitory effect; also recorded: inhibit cancer cell invasion in a concentration-dependent manner
  IC50: 5.6 µM
3LL cells
  inhibition of macropinocytosis: inhibit macropinocytosis in 3LL cells and HT-1080 cells in a concentration-dependent manner
Mouse spleen T cells
  CCL21-stimulated T cell migration: did not affect

## O=C(Cn1cc(S(=O)(=O)N2CCCC2)ccc1=O)c1ccc(-c2cccc(C(F)(F)F)c2)cc1 [TS-45, 1-(2-oxo-2-(3′-(trifluoromethyl)-[1,1′-biphenyl]-4-yl)ethyl)-5-(pyrrolidin-1-ylsulfonyl)pyridin-2(1H)-one]
[3]
  inhibition of DLD-1 cell invasion: inhibits DLD-1 cell invasion
[1]
  inhibition of HT-1080 cell invasion: inhibit HT-1080 cell invasion
[2]
  inhibition of cancer cell (3LL) invasion: significantly excellent inhibitory effect; also recorded: inhibit cancer cell invasion in a concentration-dependent manner
  IC50: 3 µM
3LL cells
  inhibition of macropinocytosis: inhibit macropinocytosis in 3LL cells and HT-1080 cells in a concentration-dependent manner
Mouse spleen T cells
  CCL21-stimulated T cell migration: did not affect
[4]; C57BL/6 mice, 2 mg/mouse iv, 4 times, FIG. 17(B)
  metastasis of melanoma cells to the lung: significantly inhibited
[4]; dose of about 0.2 mg to a mouse, iv 4 times, FIG. 17(C)
  number of cells that underwent metastasis to the lung, reduced to: about 20%
[5]
  mouse body weight: not affected
